The values that follow come from ChEMBL document CHEMBL2396615 (Bioorg Med Chem Lett, 2013).

Structures are written as SMILES.

For experiment [1], the target named is T1, Bifunctional epoxide hydrolase 2 (Homo sapiens, UniProt P34913).
T1 sequence (P34913 whole entry): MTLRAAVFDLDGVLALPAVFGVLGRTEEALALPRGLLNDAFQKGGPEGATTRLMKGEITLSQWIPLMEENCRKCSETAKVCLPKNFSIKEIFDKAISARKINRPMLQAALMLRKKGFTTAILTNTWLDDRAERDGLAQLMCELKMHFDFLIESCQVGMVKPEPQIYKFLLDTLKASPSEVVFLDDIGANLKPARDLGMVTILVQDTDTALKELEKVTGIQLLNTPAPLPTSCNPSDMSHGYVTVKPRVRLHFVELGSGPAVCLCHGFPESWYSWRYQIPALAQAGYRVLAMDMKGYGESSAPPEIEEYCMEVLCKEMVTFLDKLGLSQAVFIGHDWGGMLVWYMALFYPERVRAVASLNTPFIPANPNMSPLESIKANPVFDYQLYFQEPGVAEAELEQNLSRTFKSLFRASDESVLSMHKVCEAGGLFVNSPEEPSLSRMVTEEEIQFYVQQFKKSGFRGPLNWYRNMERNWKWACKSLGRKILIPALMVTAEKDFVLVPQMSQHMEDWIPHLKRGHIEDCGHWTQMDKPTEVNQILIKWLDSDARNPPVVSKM
Put plainly: Inhibition of human recombinant soluble epoxide hydrolase using (cyano(6-methoxy-naphthelen-2-yl)methyl trans-[(3-phenyl-oxiran-2-yl)methyl] carbonate) as substrate preincubated for 5 mins prior to substrate addition by fluorescence assay.

In experiment [2] the target is T1, Bifunctional epoxide hydrolase 2. The experiment in a line: Competitive inhibition of human recombinant soluble epoxide hydrolase using [3H]-tDPPO as substrate.

For `[O-][S+](Cc1ccccc1)Cc1ccccc1`, the IC50 in experiment [1] stood at 70 µM.

Turning to `CCCCCCCCC(=O)CCCCCCCC`, the IC50 in experiment [1] is over 100 µM.

As to `CCCCCCCCS(=O)(=O)CCCCCCCC`, in experiment [1], the concentration for half-maximal inhibition (IC50) was over 100 µM.

On to `CCCCCCCC[S+]([O-])Cc1ccccc1` (stereo unspecified), for which the half-inhibitory concentration (IC50) in experiment [1] was found to be 6.8 µM.

As for `CCCCCCCC[S+]([O-])CCCCCCCC`, in experiment [1], the IC50 was 1.35 µM.

Take `O=C(Cc1ccccc1)Nc1ccccc1`: the IC50 in experiment [1] was determined as 11 µM.

Turning to `O=C(Nc1ccccc1)Nc1ccccc1`, the IC50 in experiment [1] amounted to 0.4 µM.

For the molecule `CCCCCCCCSCCCCCCCC` [DIOCTYLSULFANE], the IC50 in experiment [1] was over 100 µM.

For `O=c1c2ccccc2[se]n1-c1ccccc1` [EBSELEN], in experiment [1], the concentration for half-maximal inhibition (IC50) turned out to be 2.2 µM.

Turning to `C[C@]12CC[C@@H]3c4ccc(O)cc4C[C@@H](CCCCCCCCC[S+]([O-])CCCC(F)(F)C(F)(F)F)[C@H]3[C@@H]1CC[C@@H]2O` (stereo partly specified) [FULVESTRANT], in experiment [2], the Ki worked out at 0.026 µM. The IC50 in experiment [1] is 0.006 µM.
